According to the supplement of paper PMC10307832:

Assays:
Assay in all cases: relative viability (nuclei count vs DMSO), 5 days (fraction); higher = more cells survive
NCI-H596 = tested on: NCI-H596
In short: (§1)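 Lung cancer cell lines, seeded in 1536-well plates, were treated the following day by pin tool with a single drug or with five library-drug doses (not always all listed) in √10 steps on top of a fixed anchor-drug dose. Cells were fixed and nuclei stained in one step after 5 days, and nuclei were counted. Relative viability is the nuclei count for treated wells divided by that for vehicle wells, reported as medians of duplicate plates.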

EKVX = tested on: EKVX
In short: as §1

NCI-H2009 = tested on: NCI-H2009
In short: as §1

LC-2-ad = tested on: LC-2-ad
In short: as §1

NCI-H1395 = tested on: NCI-H1395
In short: as §1

NCI-H1355 = tested on: NCI-H1355
In short: as §1

NCI-H647 = tested on: NCI-H647
In short: as §1

NCI-H2405 = tested on: NCI-H2405
In short: as §1

SK-MES-1 = tested on: SK-MES-1
In short: as §1

NCI-H1792 = tested on: NCI-H1792
In short: as §1

HARA = tested on: HARA
In short: as §1

SK-LU-1 = tested on: SK-LU-1
In short: as §1

HCC-366 = tested on: HCC-366
In short: as §1

NCI-H2228 = tested on: NCI-H2228
In short: as §1

NCI-H2087 = tested on: NCI-H2087
In short: as §1

HCC-827 = tested on: HCC-827
In short: as §1

LOU-NH91 = tested on: LOU-NH91
In short: as §1

BEN = tested on: BEN
In short: as §1

NCI-H1437 = tested on: NCI-H1437
In short: as §1

NCI-H661 = tested on: NCI-H661
In short: as §1

NCI-H1734 = tested on: NCI-H1734
In short: as §1

Structure (SMILES): O=C(O)c1ccc(-c2c[nH]c3ncc(-c4ccccc4)cc23)cc1C1CCCC1 + C[C@]1(O)C[C@@H](c2nc(-c3ccc4ccc(-c5ccccc5)nc4c3)c3c(N)nccn32)C1 [Linsitinib] (partner 1 µM)
- relative viability (NCI-H596; first compound 0.04 µM): 0.974
- relative viability (NCI-H596; first compound 0.1265 µM): 1.05
- relative viability (NCI-H596; first compound 0.4 µM): 1.19
- relative viability (NCI-H596; first compound 1.265 µM): 1.03
- relative viability (EKVX; first compound 0.04 µM): 0.984
- relative viability (EKVX; first compound 0.1265 µM): 1.18
- relative viability (EKVX; first compound 0.4 µM): 1.11
- relative viability (EKVX; first compound 1.265 µM): 0.713
- relative viability (NCI-H2009; first compound 0.04 µM): 1.23
- relative viability (NCI-H2009; first compound 0.1265 µM): 1.21
- relative viability (NCI-H2009; first compound 0.4 µM): 1.15
- relative viability (NCI-H2009; first compound 1.265 µM): 1.08
- relative viability (LC-2-ad; first compound 0.04 µM): 0.81
- relative viability (LC-2-ad; first compound 0.1265 µM): 0.885
- relative viability (LC-2-ad; first compound 0.4 µM): 0.775
- relative viability (LC-2-ad; first compound 1.265 µM): 0.425
- relative viability (NCI-H1395; first compound 0.04 µM): 1.11
- relative viability (NCI-H1395; first compound 0.1265 µM): 1.06
- relative viability (NCI-H1395; first compound 0.4 µM): 1.08
- relative viability (NCI-H1395; first compound 1.265 µM): 0.796
- relative viability (NCI-H1355; first compound 0.04 µM): 0.848
- relative viability (NCI-H1355; first compound 0.1265 µM): 0.79
- relative viability (NCI-H1355; first compound 0.4 µM): 0.887
- relative viability (NCI-H1355; first compound 1.265 µM): 0.633
- relative viability (NCI-H647; first compound 0.04 µM): 1.18
- relative viability (NCI-H647; first compound 0.1265 µM): 1.18
- relative viability (NCI-H647; first compound 0.4 µM): 1.02
- relative viability (NCI-H647; first compound 1.265 µM): 1.03
- relative viability (NCI-H2405; first compound 0.04 µM): 0.916
- relative viability (NCI-H2405; first compound 0.1265 µM): 0.932
- relative viability (NCI-H2405; first compound 0.4 µM): 0.908
- relative viability (NCI-H2405; first compound 1.265 µM): 0.603
- relative viability (SK-MES-1; first compound 0.04 µM): 1.18
- relative viability (SK-MES-1; first compound 0.1265 µM): 1.09
- relative viability (SK-MES-1; first compound 0.4 µM): 0.997
- relative viability (SK-MES-1; first compound 1.265 µM): 0.749
- relative viability (NCI-H1792; first compound 0.04 µM): 0.577
- relative viability (NCI-H1792; first compound 0.1265 µM): 0.727
- relative viability (NCI-H1792; first compound 0.4 µM): 0.56
- relative viability (NCI-H1792; first compound 1.265 µM): 0.558
- relative viability (HARA; first compound 0.04 µM): 0.905
- relative viability (HARA; first compound 0.1265 µM): 0.983
- relative viability (HARA; first compound 0.4 µM): 0.994
- relative viability (HARA; first compound 1.265 µM): 0.748
- relative viability (SK-LU-1; first compound 0.04 µM): 1.06
- relative viability (SK-LU-1; first compound 0.1265 µM): 1
- relative viability (SK-LU-1; first compound 0.4 µM): 0.943
- relative viability (SK-LU-1; first compound 1.265 µM): 0.851
- relative viability (HCC-366; first compound 0.04 µM): 0.657
- relative viability (HCC-366; first compound 0.1265 µM): 0.759
- relative viability (HCC-366; first compound 0.4 µM): 0.882
- relative viability (HCC-366; first compound 1.265 µM): 0.573
- relative viability (NCI-H2228; first compound 0.04 µM): 0.726
- relative viability (NCI-H2228; first compound 0.1265 µM): 0.729
- relative viability (NCI-H2228; first compound 0.4 µM): 0.813
- relative viability (NCI-H2228; first compound 1.265 µM): 0.589
- relative viability (NCI-H2087; first compound 0.04 µM): 0.959
- relative viability (NCI-H2087; first compound 0.1265 µM): 1.03
- relative viability (NCI-H2087; first compound 0.4 µM): 0.97
- relative viability (NCI-H2087; first compound 1.265 µM): 0.859
- relative viability (HCC-827; first compound 0.04 µM): 0.966
- relative viability (HCC-827; first compound 0.1265 µM): 0.976
- relative viability (HCC-827; first compound 0.4 µM): 0.884
- relative viability (HCC-827; first compound 1.265 µM): 0.702
- relative viability (LOU-NH91; first compound 0.04 µM): 0.983
- relative viability (LOU-NH91; first compound 0.1265 µM): 0.962
- relative viability (LOU-NH91; first compound 0.4 µM): 0.899
- relative viability (LOU-NH91; first compound 1.265 µM): 0.788
- relative viability (BEN; first compound 0.04 µM): 1.03
- relative viability (BEN; first compound 0.1265 µM): 1.03
- relative viability (BEN; first compound 0.4 µM): 0.931
- relative viability (BEN; first compound 1.265 µM): 0.859
- relative viability (NCI-H1437; first compound 0.04 µM): 1.03
- relative viability (NCI-H1437; first compound 0.1265 µM): 1.09
- relative viability (NCI-H1437; first compound 0.4 µM): 0.969
- relative viability (NCI-H1437; first compound 1.265 µM): 0.55
- relative viability (NCI-H661; first compound 0.04 µM): 0.576
- relative viability (NCI-H661; first compound 0.1265 µM): 0.603
- relative viability (NCI-H661; first compound 0.4 µM): 0.572
- relative viability (NCI-H661; first compound 1.265 µM): 0.736
- relative viability (NCI-H1734; first compound 0.04 µM): 0.917
- relative viability (NCI-H1734; first compound 0.1265 µM): 0.938
- relative viability (NCI-H1734; first compound 0.4 µM): 0.816
- relative viability (NCI-H1734; first compound 1.265 µM): 0.823
